The source of these data is US11213579B2, “Vaccines with enhanced immunogenicity, low allergenicity and reactogenicity” (priority 2018, dated 2022).

Structures are written as SMILES.

Experiment [1] has as its system P. aeruginosa 6616. As to the kind of experiment: Photodynamic inactivation of Pseudomonas aeruginosa, re-seeding on MHA to control inactivation. In kind it is cell-based. The settings on record: initial dose 10 lg CFU/ml, 5 min, 500 μV/ml.
Experiment [2] has as its system Newcastle disease virus (strain 2M). In kind it is cell-based.

Turning to `Cc1cc2nc3c(=O)[nH]c(=O)nc-3n(C[C@H](O)[C@H](O)[C@H](O)CO)c2cc1C` [Riboflavin], the “lg CFU/ml after treatment” value in experiment [1] (photosensitizer 1 nM/L, 320 nm for flavins, 560 nm for phenothiazines and porphyrins) came out at 6 lg CFU/ml; in experiment [1] (photosensitizer 5 nM/L, 320 nm for flavins, 560 nm for phenothiazines and porphyrins), 2 lg CFU/ml; in experiment [1] (photosensitizer 10 nM/L, 320 nm for flavins, 560 nm for phenothiazines and porphyrins), 1 lg CFU/ml; in experiment [1] (photosensitizer 20 nM/L, 320 nm for flavins, 560 nm for phenothiazines and porphyrins) it was 0 lg CFU/ml; in experiment [1] (photosensitizer 40 nM/L, 320 nm for flavins, 560 nm for phenothiazines and porphyrins), 0 lg CFU/ml; in experiment [1] (photosensitizer 80 nM/L, 320 nm for flavins, 560 nm for phenothiazines and porphyrins) it was 0 lg CFU/ml. Besides, the “lg CFU/ml after treatment” value amounted to 0 lg CFU/ml in experiment [1] (photosensitizer 160 nM/L, 320 nm for flavins, 560 nm for phenothiazines and porphyrins); 0 lg CFU/ml in experiment [1] (photosensitizer 320 nM/L, 320 nm for flavins, 560 nm for phenothiazines and porphyrins); 0 lg CFU/ml in experiment [1] (photosensitizer 640 nM/L, 320 nm for flavins, 560 nm for phenothiazines and porphyrins); 0 lg CFU/ml in experiment [1] (wavelength 180 nm, photoinactivator 40 μM/L); 2 lg CFU/ml in experiment [1] (wavelength 220 nm, photoinactivator 40 μM/L); 1 lg CFU/ml in experiment [1] (wavelength 260 nm, photoinactivator 40 μM/L). The “lg CFU/ml after treatment” value is 0 lg CFU/ml in experiment [1] (wavelength 320 nm, photoinactivator 40 μM/L); 0 lg CFU/ml in experiment [1] (wavelength 360 nm, photoinactivator 40 μM/L); 0 lg CFU/ml in experiment [1] (wavelength 400 nm, photoinactivator 40 μM/L); 0 lg CFU/ml in experiment [1] (wavelength 440 nm, photoinactivator 40 μM/L); 0 lg CFU/ml in experiment [1] (wavelength 480 nm, photoinactivator 40 μM/L); 9 lg CFU/ml in experiment [1] (wavelength 520 nm, photoinactivator 40 μM/L). In addition, the “lg CFU/ml after treatment” value in experiment [1] (wavelength 560 nm, photoinactivator 40 μM/L) came to 8 lg CFU/ml; in experiment [1] (wavelength 600 nm, photoinactivator 40 μM/L), 9 lg CFU/ml; in experiment [1] (wavelength 640 nm, photoinactivator 40 μM/L), 9 lg CFU/ml; in experiment [1] (wavelength 680 nm, photoinactivator 40 μM/L) it was 7 lg CFU/ml; in experiment [1] (wavelength 720 nm, photoinactivator 40 μM/L) it was 6 lg CFU/ml. Further, in experiment [2], the “spectral region of highest inactivation efficiency” value is given as 180-390 nm.
